pKd: −log10 of the molar value.
Legend:
[1] = biological target: LC3A (Homo sapiens, UniProt Q9H492); experiment: FP assay with 10O5- and 8F20-based dye-linked tracers 16 and 17; settings: LC3A; compound 3 for tracer 17, compound 4 for tracer 16
Excerpt: The only experimental difference in our FP assay setup was the addition of 0.05% Tween-20, which is routinely used[27] to suppress unspecific binding of compounds to proteins.
Fluorescence polarization assay utilizing tracers 16 and 17 for interaction studies with LC3A
(upper panels) and LC3B (lower panels). The left panels depict protein titration measurements
detergent in the buffer to suppress unspecific binding. Middle panels depict displacement
Data were collected in technical
triplicates with error bars expressing the SD (n=3).

[2] = test system: live cells of the growth assay; experiment: Analysis of images of the live cell growth assay (cell morphology); format: cell-based; settings: consistent with G2/M arrest
Description: Using RPE1 and U2OS cells, cell growth was monitored in live cells over a time course of 72 h after treatment with the respective compounds.
Cell growth assay: Cell confluence (phase) from RPE1 (hTERT RPE-1, ATCC CLR_4000) or U2OS (ATCC, HTB-96) cell lines were monitored over time with the IncuCyte S3 (Sartiorius, Germany) in 384-well plates in 50 ul DMEM media, supplemented with 10% Fetal Bovine Serum (FBS) 1% penicillin/Streptomycin and incubated 24 h before treatment. […] Cell confluence is represented as % of area covered by cells. Each data point represents the average ratio or confluence obtained from three individual wells of the plate.

[3] = biological target: LC3; parameters: method as in Dong et al.; settings: higher protein and compound concentrations; ref Dong et al.; read-out: Kd (ITC); cited from earlier work
[4] = biological target: GABARAPL2 (Homo sapiens, UniProt P60520); experiment: biochemical
Chain of GABARAPL2 (P60520 whole entry): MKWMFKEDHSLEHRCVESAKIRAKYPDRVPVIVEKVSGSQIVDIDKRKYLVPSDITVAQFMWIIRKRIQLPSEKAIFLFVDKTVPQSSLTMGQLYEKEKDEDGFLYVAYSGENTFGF

| Structure (SMILES) | displacement of dye-linked tracer by parent compound [1] | cell morphology in live cell images [2] | pKd [3] | pKd [4] |
| --- | --- | --- | --- | --- |
| Cc1ccc(C(=O)N(CCCN)[C@@H](c2nc3cc(Cl)ccc3c(=O)n2Cc2ccccc2)C(C)C)cc1 [compound 3, (R)-N-(3-aminopropyl)-N-(1-(3-benzyl-7-chloro-4-oxo-3,4-dihydroquinazolin-2-yl)−2-methylpropyl)−4-methylbenzamide] | no displacement | increased number of rounded cells | ~4.92 | – |
| O=C1Nc2ccc(I)cc2C1=Cc1cc(Br)c(O)c(Br)c1 [compound 4] | no displacement | – | – | 4.52 to 4.82 |

Reference: PMC11589570, “Critical assessment of LC3/GABARAP ligands used for degrader development and ligandability of LC3/GABARAP binding pockets” (Nature Communications, 2024)
